# Laboratory results reported in paper PMC7933930, “Development of a small molecule that corrects misfolding and increases secretion of Z α1‐antitrypsin” (EMBO Molecular Medicine, 2021).
# System: CHO inducible cells expressing wild‐type M α1‐antitrypsin
# Test: Tunicamycin sensitivity, cell viability (Cell Counting Kit‐8), cells expressing M α1‐antitrypsin
# Type: cell-based
# Conditions: 10 μM GSK716, cells expressing M α1‐antitrypsin, tunicamycin 36 h
# Method: Figure 2 GSK716 inhibits polymerisation of Z α1‐antitrypsin in cell models of disease • A GSK716 was added to CHO‐TET‐ON‐Z‐A1AT cells (Ordóñez et al, 2013) with simultaneous induction of Z α1‐antitrypsin expression using doxycycline, and polymer load was quantified with the 2C1 monoclonal antibody that is specific to pathological polymers of α1‐antitrypsin (Miranda et al, 2010). […] Data were normalised to vehicle and a control compound from the GSK716 series at saturating concentration. […] It induced an approximately threefold increase in secreted levels of Z α1‐antitrypsin compared with vehicle control. This was apparent even after polymers had been allowed to form. Scale bar: 100 µm. Data presented as mean ± SD, n = 8 (secretion) and n = 6 (polymer inhibition). • E CHO tetracycline‐inducible cells expressing Z α1‐antitrypsin were induced with 0.5 μg/ml doxycycline for 48 h and treated with 10 μM GSK716. […] For every time point, NP‐40‐soluble and NP‐40‐insoluble fractions were separated and immunoprecipitated with the 2C1 mAb and resolved by 4–12% w/v SDS–PAGE and α1‐antitrypsin detected by immunoblotting. […] Cell viability was measured by Cell Counting Kit‐8. […] Samples were resolved by 4–12% w/v acrylamide SDS–PAGE and detected by autoradiography. • H The graphs show the effect of GSK716 on intracellular and extracellular Z α1‐antitrypsin (mean ± SEM, n = 2). […]
compound,measurement,value
CCC[C@@H](NC(=O)c1cccc2c1CC(=O)N2)[C@@H](O)c1cccc(F)c1C [GSK716],survival with tunicamycin (cell viability),no effect
